Data reported in patent US20100227853A1, “INHIBITORS OF CYCLIC AMP PHOSPHODIESTERASES” (Trustees of Boston College, priority 2008, published 2010).
Each block holds one compound with its values, some of them ahead of it.

Assays:
[1] = tested on: PDE4A, PDE4B, PDE4D, PDE7A, PDE7B, PDE8A, PDE3A; experiment: Summary of PDE inhibitor profile; set-up: key to PDE inhibitor profile (Table 17): (1): Strong PDE4A, PDE4B inhibitor; (2): Strong PDE4A inhibitor; (3): Strong PDE4B, moderate PDE4A inhibitor; (4): Moderate PDE4A, PDE4B inhibitor; (5): Moderate PDE4B inhibitor; key to inhibitor class, Table 15: (1): Strong PDE4A5 inhibitor; (2): Strong PDE4A, 4B inhibitor; Moderate PDE4D inhibitor; (3): Strong PDE4A. 4B inhibitor; (4): Strong PDE4A, 4B, PDE7A inhibitor: Weak PDE4D inhibitor
PDE4B3 = molecular target: T1, PDE4B3 (Mus musculus, UniProt Q8VBU5); experiment: 5FOA growth assay in fission yeast strain expressing PDE4B3; type: cell-based, Murine; conditions: for Composite Z score, PDE4B3: high throughput 5FOA growth screen
T1 construct: targets used in the assays are full-length proteins (as opposed to simply the catalytic domain); expressed in transfected cells; host or cells: Schizosaccharomyces pombe, PDE gene integrated in place of cgs2
T1 sequence (Q8VBU5 1-721): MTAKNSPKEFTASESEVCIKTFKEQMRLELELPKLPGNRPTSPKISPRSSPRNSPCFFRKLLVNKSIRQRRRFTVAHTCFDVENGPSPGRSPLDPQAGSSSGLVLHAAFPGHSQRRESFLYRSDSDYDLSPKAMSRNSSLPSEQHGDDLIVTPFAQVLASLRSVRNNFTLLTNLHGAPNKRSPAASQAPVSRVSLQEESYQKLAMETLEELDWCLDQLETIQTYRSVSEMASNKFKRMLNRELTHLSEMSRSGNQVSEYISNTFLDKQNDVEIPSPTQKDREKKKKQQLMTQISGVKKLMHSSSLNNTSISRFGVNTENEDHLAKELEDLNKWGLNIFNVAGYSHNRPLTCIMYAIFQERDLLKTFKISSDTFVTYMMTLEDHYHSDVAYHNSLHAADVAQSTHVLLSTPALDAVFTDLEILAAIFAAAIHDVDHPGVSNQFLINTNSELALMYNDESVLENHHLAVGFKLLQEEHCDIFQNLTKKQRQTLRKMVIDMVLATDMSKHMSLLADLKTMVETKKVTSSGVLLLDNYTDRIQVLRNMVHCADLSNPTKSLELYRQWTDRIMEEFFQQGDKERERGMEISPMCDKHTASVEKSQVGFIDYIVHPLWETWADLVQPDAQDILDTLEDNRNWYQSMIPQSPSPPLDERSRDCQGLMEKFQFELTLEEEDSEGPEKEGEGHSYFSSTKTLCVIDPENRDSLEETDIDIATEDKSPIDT
Procedure: (§1) High throughput drug screens were carried out at the Broad Institute's Chemical Biology Program screening facility (Broad Institute, Cambridge, Mass.). Depending upon the strain, cultures were pregrown to exponential phase in EMM complete medium containing from 0.5 to 2.5 mM cAMP to repress fbp1-ura4 transcription. […] Starting cell concentrations ranged from 0.5×10^5 to 4×10^5 cells/ml depending on the screening strain. […] Other positive control dishes contained 5 mM cAMP in the 5FOA medium. Cultures were grown for 48 hours at 30° C., sealed in an airtight container with moist paper towels to prevent evaporation. Optical densities (OD600) of cultures were measured using a microplate reader. Bioinformatic analysis of the results to determine composite Z scores was performed as previously described^30, 31.
(§2) To determine whether the 5FOA growth phenotype could be exploited for high throughput drug screening, strains expressing PDE2A, PDE4A, PDE4B, or PDE8A were pre-grown in EMM medium containing cAMP and then transferred to 5FOA medium in 384 well microtiter plates in the presence or absence of cAMP. OD600 measurements were taken after 48 hours incubation at 30° C.
(§3) Cells were pregrown in EMM medium [MP Biomedicals (Solon, Ohio), 3% glucose, filter-sterilized to avoid carmelization, which would introduce variability into the optical density of the medium] containing from 0 mM to 2.5 mM cAMP (or either 0.5 mM or 1.0 mM cGMP). This was to repress expression of the fbp1-ura4 reporter prior to exposure of cells to 5FOA medium. Cells were grown at 30° C. to exponential phase (approximately 10^7 cells/ml). […] Starting cell concentrations ranged from 0.5×10^5 to 4×10^5 cells/ml depending on the screening strain. […] Other positive control dishes contained 5 mM cAMP in the 5FOA medium for PDEs that lack appropriate control compounds. Cultures were grown for 48 hours at 30° C., sealed in an airtight container with moist paper towels to prevent evaporation. Optical densities (OD600) of cultures were measured using a microplate reader. Bioinformatic analysis of the results to determine composite Z scores was performed as previously described (1, 3).

PDE4A1 = molecular target: T2, PDE4A1 (Mus musculus, UniProt O89084); experiment: 5FOA growth assay (high throughput screen, ED50) in fission yeast strain expressing PDE4A1; type: cell-based; conditions: for Composite Z score, PDE4A1: high throughput 5FOA growth screen, greater than 8.53 = statistically-significant inhibitor
T2 construct: targets used in the assays are full-length proteins (as opposed to simply the catalytic domain); expressed in transfected cells; host or cells: Schizosaccharomyces pombe, PDE gene integrated in place of cgs2
T2 sequence (O89084 1-610 isoform O89084-2): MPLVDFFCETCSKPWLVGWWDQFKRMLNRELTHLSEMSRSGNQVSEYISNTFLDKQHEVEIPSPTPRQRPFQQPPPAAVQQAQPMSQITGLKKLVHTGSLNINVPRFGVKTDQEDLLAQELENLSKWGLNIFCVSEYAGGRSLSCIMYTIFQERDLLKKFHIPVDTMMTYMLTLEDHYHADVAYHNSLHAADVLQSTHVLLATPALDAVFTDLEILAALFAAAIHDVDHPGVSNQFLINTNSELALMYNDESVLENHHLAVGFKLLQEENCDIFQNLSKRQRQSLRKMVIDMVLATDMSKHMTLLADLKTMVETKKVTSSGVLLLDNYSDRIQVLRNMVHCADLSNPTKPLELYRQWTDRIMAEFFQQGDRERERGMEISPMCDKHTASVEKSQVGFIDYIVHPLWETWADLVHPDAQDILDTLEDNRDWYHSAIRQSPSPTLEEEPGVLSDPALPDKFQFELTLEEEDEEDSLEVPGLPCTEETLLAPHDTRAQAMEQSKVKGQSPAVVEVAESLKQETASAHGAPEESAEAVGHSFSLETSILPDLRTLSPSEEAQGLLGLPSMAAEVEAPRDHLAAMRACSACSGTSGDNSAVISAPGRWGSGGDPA
Procedure: as §1, §2, §3

PDE4A5 = molecular target: T3, PDE4A5 (Rattus norvegicus, UniProt P54748); experiment: 5FOA growth assay in fission yeast strain expressing PDE4A5; type: cell-based; conditions: 20 uM
T3 construct: targets used in the assays are full-length proteins (as opposed to simply the catalytic domain); expressed in transfected cells; host or cells: Schizosaccharomyces pombe, PDE gene integrated in place of cgs2
T3 sequence (P54748 1-844): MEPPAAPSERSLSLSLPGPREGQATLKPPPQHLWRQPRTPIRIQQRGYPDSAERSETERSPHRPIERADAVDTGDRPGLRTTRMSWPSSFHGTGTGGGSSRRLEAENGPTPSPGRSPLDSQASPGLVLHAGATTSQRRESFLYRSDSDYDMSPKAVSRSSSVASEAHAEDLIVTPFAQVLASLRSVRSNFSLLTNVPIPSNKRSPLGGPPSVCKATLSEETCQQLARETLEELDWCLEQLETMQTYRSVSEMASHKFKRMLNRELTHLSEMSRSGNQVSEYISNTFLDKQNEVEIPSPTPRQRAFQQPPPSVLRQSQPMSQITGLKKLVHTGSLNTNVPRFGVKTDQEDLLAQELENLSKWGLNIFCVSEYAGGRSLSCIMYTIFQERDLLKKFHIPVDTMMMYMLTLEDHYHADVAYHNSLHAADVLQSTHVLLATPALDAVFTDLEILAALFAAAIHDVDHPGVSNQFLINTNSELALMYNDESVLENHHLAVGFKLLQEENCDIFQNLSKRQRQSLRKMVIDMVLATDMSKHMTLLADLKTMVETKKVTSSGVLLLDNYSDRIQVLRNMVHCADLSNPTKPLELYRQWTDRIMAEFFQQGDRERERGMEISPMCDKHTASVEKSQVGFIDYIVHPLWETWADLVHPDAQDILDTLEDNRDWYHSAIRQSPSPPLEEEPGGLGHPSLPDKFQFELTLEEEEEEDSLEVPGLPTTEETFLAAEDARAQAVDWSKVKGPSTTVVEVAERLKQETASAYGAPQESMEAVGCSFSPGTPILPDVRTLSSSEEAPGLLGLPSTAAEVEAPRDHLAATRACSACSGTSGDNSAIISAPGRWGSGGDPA
Procedure: High throughput drug screens were carried out at the Broad Institute's Chemical Biology Program screening facility (Broad Institute, Cambridge, Mass.). Depending upon the strain, cultures were pregrown to exponential phase in EMM complete medium containing from 0.5 to 2.5 mM cAMP to repress fbp1-ura4 transcription. Cells were collected by centrifugation, resuspended in 5FOA medium, and 25 μl were transferred to 384-well microtiter dishes (untreated, with flat clear bottoms) that had been pre-filled with 25 μl 5FOA medium and pre-pinned with 100 nl of compounds (stock solutions were generally 10 mM) from a subset of the Prestwick Bioactive and the Microsource Spectrum compound libraries. Starting cell concentrations ranged from 0.5×10^5 to 4×10^5 cells/ml depending on the screening strain. […] Other positive control dishes contained 5 mM cAMP in the 5FOA medium. Cultures were grown for 48 hours at 30° C., sealed in an airtight container with moist paper towels to prevent evaporation. Optical densities (OD600) of cultures were measured using a microplate reader. Bioinformatic analysis of the results to determine composite Z scores was performed as previously described^30, 31.
(§4) Cells were pregrown in EMM medium [MP Biomedicals (Solon, Ohio), 3% glucose, filter-sterilized to avoid carmelization, which would introduce variability into the optical density of the medium] containing from 0 mM to 2.5 mM cAMP (or either 0.5 mM or 1.0 mM cGMP). This was to repress expression of the fbp1-ura4 reporter prior to exposure of cells to 5FOA medium. Cells were grown at 30° C. to exponential phase (approximately 10^7 cells/ml). Cells were collected by centrifugation and resuspended in 5FOA medium, and 25 μl were transferred to 384-well microtiter dishes (untreated, with flat clear bottoms) that had been pre-filled with 25 μl 5FOA medium and pre-pinned with 100 nl of compounds (stock solutions were generally 10 mM). Starting cell concentrations ranged from 0.5×10^5 to 4×10^5 cells/ml depending on the screening strain. […] Other positive control dishes contained 5 mM cAMP in the 5FOA medium for PDEs that lack appropriate control compounds. Cultures were grown for 48 hours at 30° C., sealed in an airtight container with moist paper towels to prevent evaporation. Optical densities (OD600) of cultures were measured using a microplate reader. Bioinformatic analysis of the results to determine composite Z scores was performed as previously described (1, 3).

PDE7A = PDE7A (Homo sapiens, UniProt Q13946); experiment: 5FOA growth assay in fission yeast strain expressing PDE7A; type: cell-based; set-up: targets used in the assays are full-length proteins (as opposed to simply the catalytic domain); expressed in transfected cells; host or cells: Schizosaccharomyces pombe, PDE gene integrated in place of cgs2; conditions: high throughput 5FOA growth screen
PDE7A, sequence (Q13946 whole entry, the tested form may be a part): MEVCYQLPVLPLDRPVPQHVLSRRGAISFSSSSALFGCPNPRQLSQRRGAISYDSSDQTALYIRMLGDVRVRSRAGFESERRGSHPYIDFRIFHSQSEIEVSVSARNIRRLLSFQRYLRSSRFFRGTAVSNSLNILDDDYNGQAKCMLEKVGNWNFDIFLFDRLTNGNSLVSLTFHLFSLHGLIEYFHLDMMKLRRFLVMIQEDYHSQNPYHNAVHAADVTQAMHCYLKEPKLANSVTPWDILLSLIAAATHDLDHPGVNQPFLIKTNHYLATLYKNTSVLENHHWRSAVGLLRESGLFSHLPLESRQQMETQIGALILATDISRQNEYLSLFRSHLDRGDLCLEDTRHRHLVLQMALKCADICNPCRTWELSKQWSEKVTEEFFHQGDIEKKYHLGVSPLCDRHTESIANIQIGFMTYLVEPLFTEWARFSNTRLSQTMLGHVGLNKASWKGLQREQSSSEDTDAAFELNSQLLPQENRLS
Procedure: PDE inhibition allows growth in 5FOA medium as measured by optical density after 48 hours incubation at 30° C. Compound BC12 and six structural analogs were tested for growth stimulation.
as §4

- 1 Assay (20 uM) 4B3 (PDE4B3; PDE 4B3): 115.27 ND ND ND ND
- 1 Assay (20 uM) 4A1 (PDE4A1; 20 uM, PDE 4A1): 72.21 ND ND ND ND
SMILES: CCCn1c2ccccc2c2nc3ccccc3nc21 [1422, K02]
- PDE inhibitor profile (Table 17) ([1]; overall classification, Table 17 footnotes): 1422, K02 (1)

- 1 Assay (20 uM) 4B3 (PDE4B3): 1.8421 ND ND ND ND
- 1 Assay (20 uM) 4A5 (PDE4A5): 0.582 ND ND ND ND
SMILES: CCOC(=O)c1sc2sc(C(=O)OCC)c(-c3ccc(Cl)cc3)c2c1N [2055, N01]

- 1 Assay (20 uM) 4B3 (PDE4B3): 21.4955 ND ND ND ND
- 1 Assay (20 uM) 4A5 (PDE4A5): 2.07 ND ND ND ND
SMILES: COC(=O)c1sc(SC)c(C#N)c1-c1ccco1 [2055, C21]

SMILES: COC(=O)C1=CN(Cc2ccccc2)C(=O)/C1=C\c1cccs1 [Compound 27-4]
- inhibitor class, Table 15 [1]: 27-4 (1)

SMILES: COC(=O)C1=C(C)N(c2ccccc2Cl)C(=O)/C1=C\c1cccs1 [Compound 27-8]
- inhibitor class, Table 15 [1]: 27-8 (2)

SMILES: COC(=O)C1=C(C)N(c2ccc(F)cc2)C(=O)/C1=C\c1cccs1 [Compound 27-6]
- inhibitor class, Table 15 [1]: 27-6 (4)

SMILES: COC(=O)C1=C(C)N(c2cccc(C(F)(F)F)c2)C(=O)/C1=C\c1cccs1 [Compound 27-7]
- inhibitor class, Table 15 [1]: 27-7 (3)

SMILES: COC(=O)C1=C(C)N(CC(C)C)C(=O)/C1=C\c1ccco1 [Compound 27-2]
- inhibitor class, Table 15 [1]: 27-2 (2)

- Composite Z score, PDE4B3 (PDE4B3): 5.6256
- Composite Z score, PDE4A1 (PDE4A1): 18.511
- Composite Z score, PDE7A (PDE7A): 0.8496
SMILES: O=C(c1ccco1)N1CCN(c2ncnc3sc4c(c23)CCCC4)CC1 [Compound 2083J20]

- Composite Z score, PDE4B3 (PDE4B3): 0.884
- Composite Z score, PDE4A1 (PDE4A1): 6.4203
- Composite Z score, PDE7A (PDE7A): −1.808
SMILES: O=C(Nc1ncnc2sc3c(c12)CCCCC3)c1ccco1 [Compound 2084G06]

SMILES: COC(=O)C1=C(C)N(C)C(=O)/C1=C\c1cccs1 [Compound 27-1]
- inhibitor class, Table 15 [1]: 27-1 (1)

SMILES: COC(=O)C1=C(C)N(CC(C)C)C(=O)/C1=C\c1cccs1 [Compound 27-3]
- inhibitor class, Table 15 [1]: 27-3 (1)

- Composite Z score, PDE4B3 (PDE4B3): 1.9013
- Composite Z score, PDE4A1 (PDE4A1): 1.1575
- Composite Z score, PDE7A (PDE7A): 1.1908
SMILES: c1ccc(CNc2ncnc3sc4c(c23)CCCC4)cc1 [Compound 2077J03]

SMILES: COC(=O)C1=C(C)N(c2cccc(C)c2)C(=O)/C1=C\c1cccs1 [Compound 27-5]
- inhibitor class, Table 15 [1]: 27-5 (2)

- Composite Z score, PDE4B3 (PDE4B3): 0.593
- Composite Z score, PDE4A1 (PDE4A1): 29.047
- Composite Z score, PDE7A (PDE7A): 18.891
SMILES: c1nc(NC2CCCC2)c2c3c(sc2n1)CCC3 [2084 E21]
